In patent US10363250B2, “Folate receptor binding conjugates of antifolates” (Purdue Research Foundation, priority 2008, dated 2019):
“And” between values parts separate entries of the source, which are not always exact repeats. Equal entries are not always repeated. Where two headings read alike, the source gives them in different places.

Key:
Folate Receptor = Folate Receptor (Homo sapiens, UniProt P15328); conditions: Table 1 footnote (a): Westerhoff et al. 1995; cited from earlier work
human FRs (KB cells) = target: T1, human FRs (KB cells) (Homo sapiens, UniProt P15328); experiment: Cell-Based Relative Affinity Assay (competition with 3H-FA on adherent KB cells); assay type: binding; conditions: for fold weaker affinity / fold lower RA: versus FA (or the Glu-bearing parent); for change of RA with incubation temperature: on ice versus 37° C.
T1 construct: endogenous in cells; host or cells: KB cells
Procedure: Cell culture. Cells were grown continuously as a monolayer using folate-free RPMI medium (FFRPMI) containing 10% heat-inactivated fetal calf serum (HIFCS) at 37° C. in a 5% CO2/95% air-humidified atmosphere with no antibiotics. The HIFCS contained its normal complement of endogenous folates which enabled the cells to sustain growth in this more physiologically-relevant medium (Leamon et al. Proc Natl Acad Sci, USA 1991; 88:5572-6). All cell experiments were performed using FFRPMI containing 10% HIFCS (FFRPMI/HIFCS) as the growth medium unless otherwise specified.
Cell-Based Relative Affinity Assay. The relative affinity of each test article was determined based on a method initially described by Westerhoff et al. Mol Pharm 1995; 48:459-71) with modifications. Briefly, FR-positive KB cells were seeded in 24-well Falcon plates and allowed to form adherent monolayers (>75% confluent) overnight in FFRPMI/HIFCS. […] Cells were incubated for 1 h on ice or in an incubator at 37° C. (as specified in the figure legends) and then rinsed 3 times with 0.5 mL of PBS. Five hundred microliters of 1% sodium dodecyisulfate in PBS were added to each well; after 5 min, cell lysates were collected, transferred to individual vials containing 5 mL of scintillation cocktail, and then counted for radioactivity. […] Relative affinities were defined as described above.
(§1) Relative Affinity Assay Format. The in vitro RA assay described within measures a ligand's ability to compete with FA for binding to FRs. To date, cultured cells have most commonly been used as the FR source. However, herein described is the evaluation of the use of a cell-free, immobilized FR plate system for this assay. This latter method utilized a microtiter plate to which commercially-available bovine milk soluble FBP had been chemically anchored. Similar to the cell-based method, ^3H-FA can compete directly with increasing concentrations of test article for binding to the attached FRs; however, unlike the cell-based method, bound radiolabel can be conveniently “stripped” from the plate by rinsing with a mildly acidic saline solution. […] Likewise, values lower than unity reflect weaker affinity, and values higher than unity reflect stronger affinity.

[1] = tested on: human KB tumor cells xenografts; experiment: Activity against subcutaneous KB tumors; assay type: in vivo, mice; conditions: 2 μmol/kg TIW/2 weeks
Procedure: Effect On Transplanted KB Tumors. Mice are injected, subcutaneously with human KB tumor cells xenografts.

KB cells = experiment: Activity against KB cells (72 h continuous assay); assay type: cell-based; conditions: Homo sapiens
[2] = target: bovine milk soluble folate binding protein (sFBP) (Bos taurus, UniProt P02702); conditions: plate-anchored bovine milk sFBP, cold incubation, absence of serum
From the text: as §1

[3] = Remaining in solution during the RA assay period; assay type: physicochemical; conditions: even at 30 μM, throughout the assay period
From the text: It is further appreciated that among the folate analogs, it was interesting to observe the importance of having a charged moiety in close proximity to the Pte group. For example, the RA value increased 90 to>300-fold when a Glu residue was attached to Pte, and N^10-propargyl 5,8-dideazapteroic acid, respectively. […] But, two exceptions were found. […] Therefore, without being hound by theory, it is believed that the lower RA value observed for EC216 may result from steric interference caused by the closer proximity of the drug (DAVLBH) to the Pte unit.

[4] = Table 1, adherent KB cells, 10% serum, 37° C., FA = 1
[5] = KB cells, 10% serum (10% serum/FDRPMI)
[6] = Table 2, adherent KB cells, 10% serum, 37° C., FA = 1

T1 sequence (P15328 25-234): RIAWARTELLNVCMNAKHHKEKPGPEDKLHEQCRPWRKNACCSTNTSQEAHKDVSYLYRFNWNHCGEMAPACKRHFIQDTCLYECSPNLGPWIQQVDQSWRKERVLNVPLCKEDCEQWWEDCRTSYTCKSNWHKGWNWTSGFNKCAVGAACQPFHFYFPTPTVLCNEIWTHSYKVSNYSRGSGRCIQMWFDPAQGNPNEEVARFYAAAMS
Sequence of Folate Receptor (P15328 25-234): as above
Sequence of bovine milk soluble folate binding protein (sFBP) (P02702 20-234): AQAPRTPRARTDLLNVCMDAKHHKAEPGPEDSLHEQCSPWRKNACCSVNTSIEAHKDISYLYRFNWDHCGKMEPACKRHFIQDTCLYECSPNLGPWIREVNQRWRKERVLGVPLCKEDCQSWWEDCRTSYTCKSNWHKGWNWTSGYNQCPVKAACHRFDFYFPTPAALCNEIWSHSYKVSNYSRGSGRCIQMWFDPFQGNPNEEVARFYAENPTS

Nc1nc2c(c(=O)[nH]1)N(C=O)C(CNc1ccc(C(=O)N[C@@H](CCC(=O)O)C(=O)O)cc1)CN2 (stereo partly drawn) [5-formyl-tetrahydrofolate, 5-formyltetrahydrofolate]
Relative Binding Affinity (0° C.), value in parentheses (Folate Receptor): 0.1 | fold weaker affinity / fold lower RA (human FRs (KB cells); KB cells, 10% serum, 37° C.): 125 | Fold Weaker Affinity from FA (human FRs (KB cells); Table 1, 37° C., 10% serum): 125 | Relative Binding Affinity (0° C.) (human FRs (KB cells); Table 1, KB cells, FA = 1): 0.15 | Relative Binding Affinity (37° C.) (human FRs (KB cells); [4]): 0.008

CN1c2c(nc(N)[nH]c2=O)NCC1CNc1ccc(C(=O)N[C@@H](CCC(=O)O)C(=O)O)cc1 (stereo partly drawn) [5-methyl-tetrahydrofolate, 5-methyltetrahydrofolate]
Relative Binding Affinity (0° C.), value in parentheses (Folate Receptor): (0.35)^(a) | fold weaker affinity / fold lower RA (human FRs (KB cells); KB cells, 10% serum, 37° C.): 14 | Fold Weaker Affinity from FA (human FRs (KB cells); Table 1, 37° C., 10% serum): 14 | Relative Binding Affinity (37° C.) (human FRs (KB cells); [4]): 0.070

C#CCN(Cc1ccc2nc(N)[nH]c(=O)c2c1)c1ccc(C(=O)N[C@@H](CCC(=O)O)C(=O)O)cc1 [CB3717, N10-propargyl-5,8-dideazafolic acid]
complete responses [1]: 0/5 | IC50 (KB cells; FIG. 9 Panel A): 5 nM | IC50 (KB cells; FIG. 9 Panel B): 19 nM | RA (relative affinity) (human FRs (KB cells); [5]): 0.148 | RA / competitive binding in words (human FRs (KB cells); KB cells, 10% serum, 37° C.): equal to that of FA | Fold Weaker Affinity from FA (human FRs (KB cells); Table 1, 37° C., 10% serum): 1.0 | Relative Binding Affinity (37° C.) (human FRs (KB cells); [4]): 1.000

C#CCN(Cc1ccc2nc(N)[nH]c(=O)c2c1)c1ccc(C(=O)O)cc1 [Des-glutamyl CB3717, N^10-propargyl 5,8-dideazapteroic acid]
fold weaker affinity / fold lower RA (human FRs (KB cells); KB cells, 10% serum, 37° C.): > 300 | Fold Weaker Affinity from FA (human FRs (KB cells); Table 1, 37° C., 10% serum): 500 | Relative Binding Affinity (37° C.) (human FRs (KB cells); [4]): 0.002

Nc1nc2ncc(CNc3ccc(C(=O)N[C@@H](CCC(=O)NCCNC(=S)Nc4ccc(-c5c6ccc(=O)cc-6oc6cc(O)ccc56)c(C(=O)O)c4)C(=O)O)cc3)nc2c(=O)[nH]1 [EC17, Pte-γGlu-eda-FITC]
Fold Weaker Affinity form FA (human FRs (KB cells); Table 2, 37° C., 10% serum): 1.2 | Relative Binding Affinity (0° C.) (human FRs (KB cells); Table 2, KB cells, FA = 1): 0.29 | Relative Binding Affinity (37° C.) (human FRs (KB cells); [6]): 0.45 | change of RA with incubation temperature (human FRs (KB cells); no serum): increased with temperature

Nc1nc2ncc(CNc3ccc(C(=O)N[C@@H](CCC(=O)NC[C@H](N)C(=O)N[C@@H](CC(=O)O)C(=O)N[C@@H](CS)C(=O)O)C(=O)O)cc3)nc2c(=O)[nH]1 [EC20, Pte-γGlūβDpr-Asp-Cys]
Fold Weaker Affinity form FA (human FRs (KB cells); Table 2, 37° C., 10% serum): 1.1 | Relative Binding Affinity (37° C.) (human FRs (KB cells); [6]): 0.92

CO[C@@]12[C@H](COC(N)=O)C3=C(C(=O)C(C)=C(NCCSSC[C@H](NC(=O)CC[C@@H](NC(=O)c4ccc(NCc5cnc6nc(N)[nH]c(=O)c6n5)cc4)C(=O)O)C(=O)O)C3=O)N1C[C@@H]1N[C@@H]12 [EC72, Pte-γGlu-Cys-L-MMC]
Fold Weaker Affinity form FA (human FRs (KB cells); Table 2, 37° C., 10% serum): 1.5 | Relative Binding Affinity (0° C.) (human FRs (KB cells); Table 2, KB cells, FA = 1): 0.53 | Relative Binding Affinity (37° C.) (human FRs (KB cells); [6]): 0.59 | change of RA with incubation temperature (human FRs (KB cells); no serum): increased with temperature

CC[C@]1(O)CC2CN(CCc3c([nH]c4ccccc34)[C@@](C(=O)OC)(c3cc4c(cc3OC)N(C)[C@H]3[C@@](O)(C(=O)N/N=C(\C)c5ccc(N6C(=O)CC(SC[C@H](NC(=O)[C@H](CC(=O)O)NC(=O)[C@H](CC(=O)O)NC(=O)[C@H](CCCNC(=N)N)NC(=O)[C@H](CC(=O)O)NC(=O)CC[C@H](NC(=O)c7ccc(NCc8cnc9nc(N)[nH]c(=O)c9n8)cc7)C(=O)O)C(=O)O)C6=O)cc5)[C@H](O)[C@]5(CC)C=CCN6CC[C@]43[C@@H]65)C2)C1 (stereo partly drawn) [EC140, EC119-Hyd-DAVLBH]
RA (relative affinity) (human FRs (KB cells); [5]): 0.50 | RA (relative affinity) (human FRs (KB cells); KB cells, 37° C., no serum): 0.12 | fold change of RA with serum versus absence of serum (human FRs (KB cells); KB cells, serum versus no serum): 4 and 4.1 | Fold Weaker Affinity form FA (human FRs (KB cells); Table 2, 37° C., 10% serum): 2.0 | Relative Binding Affinity (37° C.) (human FRs (KB cells); [6]): 0.50

CC[C@]1(O)CC2CN(CCc3c([nH]c4ccccc34)[C@@](C(=O)OC)(c3cc4c(cc3OC)N(C)[C@H]3[C@@](O)(C(=O)NNC(=O)OCCSSC[C@H](NC(=O)[C@H](CC(=O)O)NC(=O)[C@H](CC(=O)O)NC(=O)[C@H](CCCNC(=N)N)NC(=O)[C@H](CC(=O)O)NC(=O)CC[C@H](NC(=O)c5ccc(NCc6cnc7nc(N)[nH]c(=O)c7n6)cc5)C(=O)O)C(=O)O)[C@H](O)[C@]5(CC)C=CCN6CC[C@]43[C@@H]65)C2)C1 (stereo partly drawn) [EC145, EC119-L-DAVLBH]
complete responses [1]: 2/5 | RA (relative affinity) [2]: 0.12 | Fold Weaker Affinity form FA (human FRs (KB cells)): 2.1 | Relative Binding Affinity (37° C.) (human FRs (KB cells)): 0.47 | fold change of RA with serum versus absence of serum (human FRs (KB cells)): 2.4

CC[C@]1(O)CC2CN(CCc3c([nH]c4ccccc34)[C@@](C(=O)OC)(c3cc4c(cc3OC)N(C)[C@H]3[C@@](O)(C(=O)NNC(=O)OCCSSC[C@H](NC(=O)c5ccc(NCc6cnc7nc(N)[nH]c(=O)c7n6)cc5)C(=O)O)[C@H](O)[C@]5(CC)C=CCN6CC[C@]43[C@@H]65)C2)C1 (stereo partly drawn) [EC216, Pte-Cys-L-DAVLBH]
remaining in solution [3]: remain in solution | fold decrease in RA versus EC145 (human FRs (KB cells); KB cells, 10% serum, 37° C., shortened spacer): 10 | Fold Weaker Affinity form FA (human FRs (KB cells); Table 2, 37° C., 10% serum): 22 | Relative Binding Affinity (37° C.) (human FRs (KB cells); [6]): 0.046

C#CCN(Cc1ccc2nc(N)[nH]c(=O)c2c1)c1ccc(C(=O)O)cc1 [EC283]
RA (relative affinity) (human FRs (KB cells); [5]): 0.002

Nc1nc2ncc(CNc3ccc(C(=O)N[C@@H](CCC(=O)O)C(=O)O)cc3)nc2c(=O)[nH]1 [Folic Acid]
variation of calculated RA values among serum conditions (human FRs (KB cells); 0 to 100% sera): 13%

CN(Cc1cnc2nc(N)[nH]c(=N)c2n1)c1ccc(C(=O)N[C@@H](CCC(=O)O)C(=O)O)cc1 [Methotrexate]
Relative Binding Affinity (0° C.), value in parentheses (Folate Receptor): 0.008 | fold weaker affinity / fold lower RA (human FRs (KB cells); KB cells, 10% serum, 37° C.): 50 | Fold Weaker Affinity from FA (human FRs (KB cells); Table 1, 37° C., 10% serum): 50 | Relative Binding Affinity (0° C.) (human FRs (KB cells); Table 1, KB cells, FA = 1): 0.000 | Relative Binding Affinity (37° C.) (human FRs (KB cells); [4]): 0.018

Nc1nc2[nH]cc(CCc3ccc(C(=O)N[C@@H](CCC(=O)O)C(=O)O)cc3)c2c(=O)[nH]1 [Pemetrexed, N-(4-(2-(2-amino-4,7-dihydro-4-oxo-3H-pyrrolo[2,3-D]pyrimidin-5-yl)ethyl)benzoyl]-L-glutamic acid]
Relative Binding Affinity (0° C.), value in parentheses (Folate Receptor): 1.5 | Fold Weaker Affinity from FA (human FRs (KB cells); Table 1, 37° C., 10% serum): 500 | Relative Binding Affinity (0° C.) (human FRs (KB cells); Table 1, KB cells, FA = 1): 0.26 | Relative Binding Affinity (37° C.) (human FRs (KB cells); [4]): 0.002

Nc1nc2ncc(C(=O)O)nc2c(=O)[nH]1 [Pterin-6-carboxylate]
RA / competitive binding in words (human FRs (KB cells); KB cells, 10% serum, 37° C.): failed to block | Relative Binding Affinity (37° C.) (human FRs (KB cells); [4]): 0.000

Nc1nc2ncc(CNc3ccc(C(=O)O)cc3)nc2c(=O)[nH]1 [Pteroic Acid]
RA (relative affinity) (human FRs (KB cells); KB cells on ice / cold incubation, absence of serum): 0.42 | fold weaker affinity than FA (human FRs (KB cells); KB cells on ice, no serum): 2.4 | fold weaker affinity / fold lower RA (human FRs (KB cells); KB cells, 10% serum, 37° C., listed as Pte): 91 and 90 | RA (relative affinity) (human FRs (KB cells); KB cells, 37° C., no serum): 0.01 | fold weaker affinity than FA (human FRs (KB cells); KB cells, 37° C., no serum): 100 | Fold Weaker Affinity from FA (human FRs (KB cells); Table 1, 37° C., 10% serum): 91 | Relative Binding Affinity (0° C.) (human FRs (KB cells); Table 1, KB cells, FA = 1): 0.42 | Relative Binding Affinity (37° C.) (human FRs (KB cells); [4]): 0.011

Cc1cc2nc3c(=O)[nH]c(=O)nc-3n(C[C@H](O)[C@H](O)[C@H](O)CO)c2cc1C [riboflavin]
competition with binding of 3H-FA (human FRs (KB cells); 300-fold molar excess, KB cells): not able to compete | RA / competitive binding in words (human FRs (KB cells); KB cells, 10% serum, 37° C.): very low
